Data published in PMC8748916, “Microbial enzymes induce colitis by reactivating triclosan in the mouse gastrointestinal tract” (Nature Communications, 2022).
Several values for one entry are separate records, joined by “and”; a condition that tells them apart may be missing. Equal values may be shown once.

Tests used:
fecal microbiota = assay: 16S rRNA sequencing of fecal microbiota of GUSi-treated mice; settings: 1 mg/kg GUSi via oral gavage
Caco2 cells = assay: Cell proliferation assay (MTT); format: cell-based, human
Experimental: (§1) Mouse (MC38) or human (Caco2 and HCT-116) intestinal cells were grown in DMEM medium fortified with 10% FBS (EMD Millipore Corporation). The cells were seeded in 96-well plates, then treated with GUSi or vehicle (0.2% v/v DMSO) for 24 h. Cell viability was determined using an MTT assay.
(§2) Fig. S14. GUSi treatment has little effect on the proliferation of mouse or human intestinal cells in vitro.
(§3) Mouse (MC38) or human (Caco2 and HCT-116) intestinal cells were treated with GUSi or vehicle (0.2% v/v
(§4) DMSO) for 24 h, then cell viability was analyzed using a MTT assay. The data are mean ± SEM, n = 5-6 per

HCT-116 cells = assay: Cell proliferation assay (MTT); format: cell-based, human
Experimental: as §1, §2, §3, §4

E. coli = test system: E. coli; design: method as in PMID 30062115; settings: cited from earlier work
[1] = test system: enzymes extracted from human fecal samples; assay: In fimo inhibition assay (TCS-G processing by human fecal extracts); format: biochemical; settings: for % Inhibition: Fig. 4d, triplicate
Experimental: Fecal extracts were prepared and proteomic analysis was performed exactly as previously described. In total, 10 g of frozen human fecal sample was thawed and added to 25 mL extraction buffer (25 mM HEPES, 25 mM NaCl pH 6.5 with Roche Complete protease inhibitor tablet) and 0.5 g autoclaved garnet beads. The mixture was vortexed until homogenous and centrifuged at low speed (300 × g for 5 min at 4 °C). The supernatant was decanted. In all, 25 mL buffer was added to the pellet and the vortex and centrifugation steps repeated. The supernatants from these steps were then combined and centrifuged at low speed for two more cycles. The resultant supernatant was sonicated twice using 1 s pulses for 1.5 min and the lysate was centrifuged at 17,000 × g for 20 min in a Beckman Coulter J2-HC centrifuge. The decanted lysate was then washed with several exchanges of extraction buffer to remove metabolites and small molecules. Total protein concentration was quantitated using a Bradford assay. The fecal lysate was diluted to 1 mg/mL concentration and snap-frozen in small aliquots.
Reaction mixtures contained 5 µL fecal extract (0.1 mg/mL final), 10 µL TCS-G (200 µM final), 5 µL GUSi (10, 1, or 0.1 µM final), and 30 µL assay buffer (25 mM HEPES, 25 mM NaCl, pH 6.5). Reactions were quenched at 30 min with 50 µL 25% trichloroacetic acid. Samples were centrifuged 20 min at 16,000 × g in a tabletop centrifuge, and the supernatant was analyzed via the same HPLC method described for the catalytic efficiency assay. Controls contained 5 µL buffer in place of GUSi. Inhibition was calculated using Eq. 1.

C57BL/6 mice = assay: Effects of GUSi on gut inflammation in mice not stimulated with DSS; format: in vivo; design: TNF (Fig.S12e) / IL-6 (Fig.S12e) / IL-10 (Fig.S12e) / MCP-1 (Fig.S12e): unit not given here
[2] = Target engagement: GUSi in colon tissue and TCS to TCS-G ratio in colon digesta by LC-MS/MS; format: in vivo, mice; settings: for GUSi in colon tissue: GUSi-treated mice
Experimental: After another 3 weeks, the mice were stimulated with 2% DSS (molecular weight = 36–50 KDa, MP Biomedicals, Solon, OH) in drinking water for 6 days to induce colitis. At end of the experiment, the mice were sacrificed for analysis.
Fig. S15. Orally dosed GUSi reaches the mouse colon and suppresses conversion of TCS -G to TCS. a.
mice were stimulated with DSS to induce colitis. The final GUSi was dosed on day 25 and mice were sacrificed
for analysis on day 27. b. GUSi is detected in the mouse colon 2 days after the final dose of the inhibitor. c.
GUSi treatment reduces the ratio of TCS to TCS-G in colon digesta.
per group. NA: no TCS or TCS-G detected.

[3] = test system: F. prausnitzii 2-L1 (Fp2-L1) GUS; assay: In vitro IC50 assay (TCS-G to TCS conversion, HPLC); format: biochemical; settings: for F. prausnitzii 2-L1 GUS %inhibition: Fig. 4b, triplicate
C. perfringens GUS = C. perfringens GUS (Clostridium perfringens, UniProt Q8XP19); assay: biochemical
mouse fecal bacteria = assay: Conversion of TCS-G to TCS by anaerobically cultured mouse fecal bacteria in vitro; format: in vitro ADME; settings: from TCS-G, replicates
[4] = cited from earlier work
[5] = 24-h treatment, concentration up to 10 µM
[6] = 1 mg/kg GUSi via oral gavage, 3- to 4-week treatment
[7] = cytokine level, individual mice, no DSS
[8] = gene expression, individual mice, no DSS
[9] = read-out: C. perfringens GUS % inhibition

C. perfringens GUS, sequence (Q8XP19 whole entry, looked up): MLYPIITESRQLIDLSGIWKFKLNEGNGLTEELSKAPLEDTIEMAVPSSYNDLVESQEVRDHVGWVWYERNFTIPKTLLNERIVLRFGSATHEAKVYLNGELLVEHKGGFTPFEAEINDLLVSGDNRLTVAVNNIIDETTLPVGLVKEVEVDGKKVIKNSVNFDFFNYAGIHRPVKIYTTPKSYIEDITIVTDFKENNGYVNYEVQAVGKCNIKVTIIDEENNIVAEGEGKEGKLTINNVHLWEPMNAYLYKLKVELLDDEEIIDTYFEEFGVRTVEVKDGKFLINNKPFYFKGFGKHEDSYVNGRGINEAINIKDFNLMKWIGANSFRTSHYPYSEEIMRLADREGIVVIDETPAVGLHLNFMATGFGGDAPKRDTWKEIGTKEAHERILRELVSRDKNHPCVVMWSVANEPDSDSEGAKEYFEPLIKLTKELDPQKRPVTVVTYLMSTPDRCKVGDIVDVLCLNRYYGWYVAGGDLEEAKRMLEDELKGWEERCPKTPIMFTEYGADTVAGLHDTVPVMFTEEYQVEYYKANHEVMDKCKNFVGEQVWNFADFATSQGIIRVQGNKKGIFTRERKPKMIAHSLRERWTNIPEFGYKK

## C1CCc2c(c(N3CCOCC3)nc3sc4c(N5CCNCC5)nnnc4c23)C1 [GUSi, UNC10201652]
Fecal microbiota
  effect on the diversity or composition of fecal microbiota: little effect
Caco2 cells; [5]
  effect on cell growth (MTT): little effect
Caco2 cells; Caco2, concentration 1, replicates
  Cell proliferation (Fig. S14): 98.3792 and 85.2575 and 104.44 and 99.0453 and 92.8508 and 100.244
Caco2 cells; Caco2, concentration 2, replicates
  Cell proliferation (Fig. S14): 86.1234 and 96.6474 and 97.7798 and 94.9156 and 100.844
Caco2 cells; Caco2, concentration 5, replicates
  Cell proliferation (Fig. S14): 95.1821 and 92.3845 and 92.5844 and 91.9849 and 82.46 and 86.0568
Caco2 cells; Caco2, concentration 10, replicates
  Cell proliferation (Fig. S14): 85.1243 and 87.6554 and 72.6021 and 79.7957 and 82.3268 and 62.0782
HCT-116 cells; [5]
  effect on cell growth (MTT): little effect
HCT-116 cells; HCT 116, concentration 1, replicates
  Cell proliferation (Fig. S14): 91.3142 and 95.487 and 92.4485 and 104.886 and 100.024
HCT-116 cells; HCT 116, concentration 2, replicates
  Cell proliferation (Fig. S14): 98.4038 and 88.5189 and 93.2993 and 86.1692 and 98.1202 and 99.3761
HCT-116 cells; HCT 116, concentration 5, replicates
  Cell proliferation (Fig. S14): 113.11 and 102.536 and 95.2844 and 92.408 and 101.807 and 114.082
HCT-116 cells; HCT 116, concentration 10, replicates
  Cell proliferation (Fig. S14): 87.263 and 108.329 and 83.941 and 79.8088 and 79.1606 and 114.487
E. coli
  effect on growth of E. coli: no effect
[1]; human fecal extracts, GUSi 10, 1 or 0.1 µM
  effect on TCS-G processing by fecal enzyme mixtures ex vivo: inhibited TCS-G processing
[1]; human fecal sample F3, 0.1 uM GUSi
  % Inhibition: 26.0315% and 22.661% and 26.9159%
[1]; human fecal sample F3, 1 uM GUSi
  % Inhibition: 55.0638% and 49.4467% and 55.1636%
[1]; human fecal sample F3, 10 uM GUSi
  % Inhibition: 63.3658% and 70.4225% and 80.8879%
[1]; human fecal sample M1, 0.1 uM GUSi
  % Inhibition: 43.1579% and 25.7515% and 43.5009%
[1]; human fecal sample M1, 1 uM GUSi
  % Inhibition: 77.2204% and 69.1166% and 76.6073%
[1]; human fecal sample M1, 10 uM GUSi
  % Inhibition: 87.4836% and 92.1188% and 91.6683%
[1]; human fecal sample M3, 1 uM GUSi
  % Inhibition: 44.8187% and 47.2169% and 47.9485%
[1]; human fecal sample M3, 10 uM GUSi
  % Inhibition: 84.9872% and 79.6161% and 93.8804%
C57BL/6 mice; [6]
  effect on body weight: little effects
  effect on colon histology: little effects
  effect on colon length: little effects
  effect on colonic or systematic inflammation: little effects
C57BL/6 mice; [7]
  IFN (Fig.S12e): 0
  IL-6 (Fig.S12e): 13.43 and 0 and 6.45
  IL-10 (Fig.S12e): 37.4 and 0 and 198.61 and 44.6 and 23.86
  IL-12P70 (Fig.S12e): 25.71 and 0 and 88.12
  MCP-1 (Fig.S12e): 48.03 and 146.49 and 57.21 and 61.62 and 184.9 and 179.76 and 331.3 and 143.93
  TNF (Fig.S12e): 60.3 and 20.04 and 10.87 and 8.58 and 0 and 48.52 and 31.51 and 26.47
C57BL/6 mice; [8]
  ifn (Fig.S12d): 0.5314 and 0.5552 and 0.6727 and 2.025 and 1.546 and 2.975 and 0.7505 and 0.9593
  il6 (Fig.S12d): 0.9822 and 0.6373 and 0.485 and 1.527 and 0.9215 and 0.6364 and 1.1212 and 1.239
  il17 (Fig.S12d): 1.45 and 0.9375 and 0.5532 and 1.296 and 0.6529 and 0.514 and 0.9732 and 1.7301
  il-1b (Fig.S12d): 1.675 and 3.673 and 1.563 and 0.709 and 1.249 and 2.221 and 3.587 and 1.198
  il-10 (Fig.S12d): 1.7121 and 1.046 and 0.8638 and 1.378 and 1.892 and 1.921 and 0.8229 and 0.4425
  il-23 (Fig.S12d): 1.384 and 0.7725 and 0.7614 and 1.398 and 2.3746 and 0.7478 and 0.414 and 0.4606
  mcp1 (Fig.S12d): 1.246 and 0.6949 and 0.7972 and 1.205 and 1.387 and 0.8717 and 0.5743 and 0.5267
  tlr-4 (Fig.S12d): 1.193 and 1.155 and 1.078 and 1.23 and 1.258 and 1.02 and 0.5994 and 0.6478
  tnf (Fig.S12d): 0.9505 and 1.516 and 0.4248 and 0.7567 and 1.942 and 2.3131 and 2.563 and 2.05
[2]; 2 days after the final oral administration of GUSi (1 mg/kg)
  presence in colon tissues: detected
[2]; GUSi 1 mg/kg oral gavage, TCS via diet
  ratio of TCS to TCS-G in colon digesta: significantly reduced
[2]; TCS, individual mice
  GUSi in colon tissue: 4.6 pmol/g and 5.3 pmol/g and 18.7 pmol/g and 4.5 pmol/g and 2.1 pmol/g and 0.7 pmol/g and 6.2 pmol/g and 5.7 pmol/g and 12 pmol/g and 5.4 pmol/g
[2]; Veh (no TCS), individual mice
  GUSi in colon tissue: 9 pmol/g and 9.3 pmol/g and 5.9 pmol/g and 9.8 pmol/g and 11.9 pmol/g and 9.9 pmol/g and 14 pmol/g and 8.6 pmol/g
[3]; GUSi 0.0457247 uM
  F. prausnitzii 2-L1 GUS %inhibition: 0% and 0.2667%
[3]; GUSi 0.137174 uM
  F. prausnitzii 2-L1 GUS %inhibition: 0% and 0.1263%
[3]; GUSi 0.411523 uM
  F. prausnitzii 2-L1 GUS %inhibition: 0%
[3]; GUSi 3.7037 uM
  F. prausnitzii 2-L1 GUS %inhibition: 74.6624% and 62.5632% and 66.5428%
[3]; GUSi 11.1111 uM
  F. prausnitzii 2-L1 GUS %inhibition: 93.6484% and 88.7563% and 88.6045%
[3]; GUSi 33.3333 uM
  F. prausnitzii 2-L1 GUS %inhibition: 99.4351% and 98.0067% and 94.7151%
[3]; GUSi 100 uM
  F. prausnitzii 2-L1 GUS %inhibition: 100.964% and 99.7754% and 96.4492%
[3]; conversion of TCS-G (200 µM) to TCS, Loop 1 GUS
  IC50: 2800 ± 100 nM
C. perfringens GUS
  IC50: 640 ± 40 nM
C. perfringens GUS; [9]
  inhibition at 1.23457 µM: 78%
  inhibition at 3.7037 µM: 93.9%
  inhibition at 11.1111 µM: 97.7%
  inhibition at 33.3333 µM: 98.6%
  inhibition at 100 µM: 99.4%

## Oc1cc(Cl)ccc1Oc1ccc(Cl)cc1Cl [TCS, Triclosan]
Mouse fecal bacteria
  TCS formed: 17.00 pmol and 16.49 pmol and 18.41 pmol
[4]; ref 36 (reply to reviewers)
  No-Observed-Adverse-Effect Level (NOAEL): 25 to 40 mg/kg/day
[4]; ref 37 (reply to reviewers)
  calculated Acceptable Daily Intake (ADI): 0.25 to 0.4 mg/kg/day
[2]; TCS-treated mice, no GUSi, individual mice
  TCS/TCSG in colon digesta: 69.2572 and 105.161 and 114.057 and 134.536 and 118.012 and 116.121 and 236.945 and 380.254 and 130.474 and 139.078
